The assay concerns the target T1, MMP-2 (Homo sapiens, UniProt P08253).
T1 construct: purchased Sino Biological 10082-HNAH
T1 sequence (P08253 110-660): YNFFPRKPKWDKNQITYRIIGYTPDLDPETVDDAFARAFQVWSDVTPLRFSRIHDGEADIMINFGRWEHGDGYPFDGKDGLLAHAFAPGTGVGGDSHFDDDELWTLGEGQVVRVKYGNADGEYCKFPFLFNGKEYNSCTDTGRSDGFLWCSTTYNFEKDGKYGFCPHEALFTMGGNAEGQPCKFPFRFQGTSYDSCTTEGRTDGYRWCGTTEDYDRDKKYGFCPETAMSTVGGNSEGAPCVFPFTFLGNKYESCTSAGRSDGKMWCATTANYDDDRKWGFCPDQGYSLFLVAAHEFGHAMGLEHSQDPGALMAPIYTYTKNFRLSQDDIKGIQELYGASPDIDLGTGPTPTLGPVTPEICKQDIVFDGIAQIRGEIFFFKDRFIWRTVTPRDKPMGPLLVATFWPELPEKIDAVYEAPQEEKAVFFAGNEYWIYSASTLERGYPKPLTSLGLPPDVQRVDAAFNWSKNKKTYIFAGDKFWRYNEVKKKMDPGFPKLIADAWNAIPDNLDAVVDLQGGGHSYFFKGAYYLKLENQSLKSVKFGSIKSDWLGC
Description: Dynamic dual-pharmacophore DEL selection against MMP-2, NGS decoding. It is filed as binding. The settings on record: for MMP2 3L Enrichment Fold: 3L library (Supplementary fig 13); for MMP2 3L Count: 3L library; for MMP2 3L Count / MMP2 5L Count: sequence count (Supplementary fig 13); for MMP2 5L Enrichment Fold: 5L library (Supplementary fig 13); for MMP2 5L Count: 5L library. From the text: Matrix metalloproteinases (MMPs) are zinc-dependent endopeptidases capable of degrading and remodeling extracellular matrix components[46],[47]. They are attractive therapeutic targets as high expression levels were detected in various diseases, such as inflammatory diseases, and at different stages of cancers, including metastasis, invasion, and angiogenesis[47]–[53]. As shown in Supplementary Fig. 3c, we performed selections against the two gelatinases (human MMP-2 and human MMP-9) to identify binding fragments for later design and synthesis of small molecule inhibitors. After selection, the three sub-libraries were decoded, and the enrichment was calculated by dividing the post-selection fraction (count/total counts) by the pre-selection fraction (Fig. 4a and Supplementary Fig. 13).
4 µg of MMP-2/MMP-9 was dissolved in 100 µl of selection buffer containing 25 mM Tris-base, 10 mM CaCl2, 150 mM NaCl, 0.05% Tween 20, pH 7.5. 10 µl of 4-Aminophenylmercuric acetate (APMA) (100 mM) solution was added to the protein solution and incubated at 37 °C for 1 h. After activation, the solution was added on top of 40 µl pre-washed Ni-NTA resin and incubated for 30 min on a rotary shaker. The supernatant was discarded, and the resin was washed three times with the selection buffer.
For each independent selection, three sub-libraries were mixed in the selection buffer with a final concentration of 40 nM of each sub-library in 100 µl. The mixture was heat denatured at 90 °C for 1 min and slowly cooled down to allow the formation of the trio-pharmacophore library. The dynamic dual-pharmacophore DEL was provided by DyNAbind GmbH (Merck, DYNA001).
The assembled library was incubated with the protein-bound solid support for 2 h at RT on a rotary shaker. In parallel, selection on bare solid support served as the negative control to exclude promiscuous binders on the resin. After panning, the supernatant was discarded, and the resin was washed three times with 1 ml selection buffer. Finally, 100 µl of 50 mM Tris buffer, pH 7.4 was added to resuspend the resin and the resin was incubated at 95 °C for 5 min to denature the protein, release, and collect the bound library members.
The eluted library members were subjected to sample preparation for NGS. NGS preparation was achieved by two-step PCR. First, the individual selection was indexed using primers containing unique sequences corresponding to each selection. The amplified product was purified from 2% agarose gel. Second, the purified DNA from all selections were pooled in equal amount and subjected to the 2nd PCR step to attach sequences compatible with the NGS flow cell and the sequencing primers. NGS was performed by Novogene UK with Novaseq 6000. Raw data files (fastq files) obtained were decoded using a custom python script and excel. The sequence reads corresponding to each sample was retrieved by searching for the correct index unique to each selection. Then, the code region was extracted from each sequence and assigned to the corresponding identity. The count of each code in each selection sample was obtained by looping through the total reads and counting the occurrence of each code. The enrichment fold of each compound was calculated by first, dividing the count by the total count to get the abundance, second, the abundance after the selection was divided by the abundance of pre-selection to reflect the distribution change of the compound. Next, the enrichment fold was plotted against the count for each member of the library to give the scatter plots as in Fig. 4.

Setting [1] is: MMP2 3L (3' sub-library members).
Setting [2] is: MMP2 3L (3' sub-library members), NGS sequence count after selection.

For `O=C(O)CNC(=O)NC12CC3CC(CC(C3)C1)C2` [Compound 66], the “Enrichment Fold” value runs as follows: (MMP2 selection, 3L sub-library) 1.69; (MMP2 selection, 5L sub-library) 1.932. The Count is listed as 477 (MMP2 selection, 3L sub-library, NGS sequence count) and 4327 (MMP2 selection, 5L sub-library, NGS sequence count).

In the case of `O=C(O)Cn1cnc2c(oc3ccccc32)c1=O` [Compound 182], the “Enrichment Fold” value runs as follows: (MMP2 selection, 3L sub-library) 1.088; (MMP2 selection, 5L sub-library) 1.688. Moreover, the Count amounted to 1179 (MMP2 selection, 3L sub-library, sequence count per compound ID) and 5803 (MMP2 selection, 5L sub-library, sequence count per compound ID).

With `Cc1cc(=O)[nH]c(-n2nc(C)c(CCC(=O)O)c2C)n1` [Compound 693], under “MMP2 selection”, the “MMP2 3L Enrichment Fold” value was 0.8647, the “MMP2 3L Count” value is given as 991, the “MMP2 5L Enrichment Fold” value was 3.023 and the “MMP2 5L Count” value is 6628.

In the case of `NCc1c[nH]nn1` [Compound 787], where the note is “MMP2 selection”, the “MMP2 3L Enrichment Fold” value turned out to be 3.194, the “MMP2 3L Count” value worked out at 2558, the “MMP2 5L Enrichment Fold” value is reported as 0.7494 and the “MMP2 5L Count” value stood at 713.

Turning to `Cn1c(O)nc2cc(C(=O)O)cnc21` [Compound 826], the “Enrichment Fold” value under setting [1] is 11.3583. This compound also came in with a Count under setting [2] of 12779. Also, where the note is “MMP2 selection”, the “MMP2 5L Enrichment Fold” value is listed as 2.035 and the “MMP2 5L Count” value is recorded as 2158.

As for `O=C(O)c1cncc(O)c1` [Compound 828], the “Enrichment Fold” value under setting [1] was 6.248. Besides, the Count under setting [2] is recorded as 14566.

These data come from publication PMC10023787, “Trio-pharmacophore DNA-encoded chemical library for simultaneous selection of fragments and linkers” (Nature Communications, 2023).
